The values that follow come from patent US20200179327A1, “USE OF PHENOLIC COMPOUNDS FROM OLEA EUROPAEA” (McCord Research, Inc., priority 2017, published 2020).

For orientation: IC50 means the concentration needed to halve the response being measured.

In series [1] the test system is peripheral blood mononuclear cells (PBMC). As to the kind of experiment: Cell viability/proliferation, Cell-Titer Blue, PBMC. It counts as cell-based, human. Particulars: 0-800 μM, 24, 48 or 72 hours. The protocol: (§1) Human peripheral blood mononuclear cells (PBMCs) were fractionated using the Ficoll Plaque fractionation method from whole blood obtained from the Australian Red Cross Blood Bank (ARCB) under ethic approval (#304/12). Cells were harvested fresh on the day of the experiments and maintained in complete-RPMI-1640 medium supplemented with 10% FBS, 2 mM L-glutamine and 20 μg/mL gentamicin at 37° C., 5% (v/v) CO2. Human aortic endothelial cells (HAECs, ATCC) and the equivalent cells taken for patients with Type II diabetes (DII-HAECs, ATCC) were cultured in endothelial cell growth medium (ECM) supplemented with 100 U/ml penicillin, 100 μg/ml streptomycin, 0.25 μg/ml fungizone, 2 mM L-glutamine, 5 U/ml heparin, 30-50 μg/ml endothelial cell growth supplement (Technoclone, Vienna, Austria). All cells were passaged by typsination and seeded into 6 well culture dishes at cell densities of 1×10^6 cells per well; at 37° C., 5% (v/v) CO2. […] Cell viability was measured using the Cell-Titer Blue® Assay kit (Promega, Madison, Wis., USA) according to the manufacturer's instructions. Cell-Titer Blue reagent was added to each well and incubated for 4 hours at 37° C., 5% CO2, before reading fluorescence intensity (550 nm excitation; 615 nm emission) using the CLARIOstar (BMG LABTECH, Offenburg, Germany) microplate reader. […]

Series [2] has as its system primary skin fibroblasts (BJ). As to the kind of experiment: Cell viability/proliferation, Cell-Titer Blue, BJ. Type of series: cell-based, human. Particulars: 0-800 μM, 24, 48 or 72 hours.
Series [3] relates to primary human aortic endothelial cells from a healthy patient (h-HAEC). As to the kind of experiment: Cell viability/proliferation, Cell-Titer Blue, h-HAEC. Particulars: 0-800 μM, 24, 48 or 72 hours. Type of series: cell-based. The protocol:
as §1

Series [4] has as its system human aortic endothelial cells from patient with Type II diabetes (DII-HAEC). As to the kind of experiment: Cell viability/proliferation, Cell-Titer Blue, DII-HAEC. Particulars: 0-800 μM, 24, 48 or 72 hours. It counts as cell-based. On the procedure:
as §1

For series [5], the target named is T1, lysine-specific demethylase 1 (LSD1) (Homo sapiens, UniProt O60341).
T1 construct: purchased EpiGentek
The experiment in a line: EpiQuik Histone Demethylase LSD1 inhibitor screening assay. Type of series: biochemical. Particulars: 10-dose, 2-fold dilution from 200 μM; read-out: LSD1 enzyme activity inhibition IC50.

The target of series [6] is T2, COX-1 (Ovis aries, UniProt P05979).
T2 construct: purchased BioVision
T2 sequence (P05979 25-600): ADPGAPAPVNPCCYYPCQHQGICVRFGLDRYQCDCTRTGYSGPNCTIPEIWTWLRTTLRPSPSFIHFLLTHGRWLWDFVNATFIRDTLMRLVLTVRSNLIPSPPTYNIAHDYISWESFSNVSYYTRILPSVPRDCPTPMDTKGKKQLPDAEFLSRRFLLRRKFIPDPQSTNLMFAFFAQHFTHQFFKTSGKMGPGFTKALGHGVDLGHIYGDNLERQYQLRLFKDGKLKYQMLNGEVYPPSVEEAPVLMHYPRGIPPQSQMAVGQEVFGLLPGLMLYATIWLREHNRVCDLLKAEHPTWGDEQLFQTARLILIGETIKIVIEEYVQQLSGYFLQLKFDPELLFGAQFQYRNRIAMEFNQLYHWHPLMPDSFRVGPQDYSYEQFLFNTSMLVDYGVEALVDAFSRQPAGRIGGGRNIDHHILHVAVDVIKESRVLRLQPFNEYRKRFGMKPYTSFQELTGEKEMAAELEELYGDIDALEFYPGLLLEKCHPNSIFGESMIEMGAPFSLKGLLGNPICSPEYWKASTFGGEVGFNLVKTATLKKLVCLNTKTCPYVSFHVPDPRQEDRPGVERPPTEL
The experiment in a line: COX-1/2 inhibitor screening kit (BioVision), COX-1. Type of series: biochemical. Particulars: 10-dose, 2-fold dilution from 1000 μM; read-out: COX-1 inhibition IC50. The protocol: (§2) Inhibition of individual COX-1 and COX-2 enzymes by MMBHTE and oleocanthal was measured using the COX-1/2 inhibitor screening kit (BioVision, Milpatas, Calif., USA), according to the manufacturer's instructions. […] The production of prostaglandin G2, the intermediate product generated by the COX enzyme in the presence of arachidonic acid is measured by coupling with HRP and COX substrate and fluorescence was measured using the CLARIOstar microplate reader at Ex/Em=535/587 nm. Data is represented at the percentage of COX enzymatic activity inhibition relative to the log of the compound and a curve fit for the control compound. Corresponding IC50 values were calculated.
(§3) FIG. 6A and FIG. 6B show the inhibition activities of MMBHTE and Oleocanthal on COX-1 and COX-2, respectively. The data shown in FIG. 6A and FIG. 6B indicates all the test samples fell within the detectable range. The data shown in FIG. 6A and FIG. 6B is represented as the percentage of COX enzymatic activity inhibition relative to the log of the concentrations and best-fit curves for MMBHTE and Oleocanthal. Corresponding IC50 values were calculated. […] Therefore, MMBHTE is a […] COX-1 and COX-2 inhibitor.

Series [7] addresses T3, COX-2 (Homo sapiens, UniProt P35354).
T3 construct: purchased BioVision
T3 sequence (P35354 18-604): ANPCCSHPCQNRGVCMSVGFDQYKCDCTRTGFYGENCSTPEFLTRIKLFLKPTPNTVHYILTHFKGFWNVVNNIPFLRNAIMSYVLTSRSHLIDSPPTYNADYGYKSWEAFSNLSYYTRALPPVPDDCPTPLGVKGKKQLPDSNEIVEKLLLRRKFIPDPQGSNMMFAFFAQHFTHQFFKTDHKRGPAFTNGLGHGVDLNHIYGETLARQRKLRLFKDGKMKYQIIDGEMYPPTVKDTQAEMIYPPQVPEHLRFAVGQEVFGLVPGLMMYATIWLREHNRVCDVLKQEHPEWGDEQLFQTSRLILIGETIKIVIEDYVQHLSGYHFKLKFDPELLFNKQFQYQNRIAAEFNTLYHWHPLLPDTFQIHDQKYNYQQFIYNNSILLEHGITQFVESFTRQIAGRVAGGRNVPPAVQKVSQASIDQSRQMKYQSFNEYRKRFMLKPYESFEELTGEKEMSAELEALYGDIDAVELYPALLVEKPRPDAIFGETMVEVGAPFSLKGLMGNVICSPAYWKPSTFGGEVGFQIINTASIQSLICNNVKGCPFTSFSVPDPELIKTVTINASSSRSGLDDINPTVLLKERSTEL
As to the kind of experiment: COX-1/2 inhibitor screening kit (BioVision), COX-2. Type of series: biochemical. The conditions noted are these: 10-dose, 2-fold dilution from 1000 μM; read-out: COX-2 inhibition IC50. On the procedure:
as §2, §3

Series [8] has as its target T4, monoamine oxidase A (MAO-A) (Homo sapiens, UniProt P21397).
T4 construct: purchased Sigma-Aldrich
T4 sequence (P21397 1-527): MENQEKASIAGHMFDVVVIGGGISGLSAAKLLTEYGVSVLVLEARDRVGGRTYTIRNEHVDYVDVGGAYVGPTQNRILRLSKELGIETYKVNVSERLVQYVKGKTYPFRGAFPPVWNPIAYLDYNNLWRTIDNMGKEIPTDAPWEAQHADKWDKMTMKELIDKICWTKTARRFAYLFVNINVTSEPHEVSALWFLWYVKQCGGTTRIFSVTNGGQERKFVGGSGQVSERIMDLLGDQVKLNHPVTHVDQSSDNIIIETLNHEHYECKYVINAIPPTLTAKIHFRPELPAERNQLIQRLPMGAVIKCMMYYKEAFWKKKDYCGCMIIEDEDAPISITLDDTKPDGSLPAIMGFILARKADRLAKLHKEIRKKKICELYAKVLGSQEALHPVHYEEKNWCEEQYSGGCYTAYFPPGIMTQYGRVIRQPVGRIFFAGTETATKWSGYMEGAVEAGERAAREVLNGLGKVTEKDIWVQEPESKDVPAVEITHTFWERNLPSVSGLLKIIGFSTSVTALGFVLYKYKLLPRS
As to the kind of experiment: Monoamine Oxidase A (MAO-A) Inhibitor Screening Kit. Particulars: 10-dose, 2-fold dilution from 100 μM; substrate tyramine; read-out: MAO-A inhibition IC50. Type of series: biochemical. The protocol: The production of H2O2 generated by the oxidative deamination of the MAO substrate tyramine was measured fluorometrically using the CLARIOstar microplate reader at Ex/Em=535/587 nm. Data is represented as the percentage of MAO enzymatic activity inhibition relative to the log of the compound and a curve fit for the control compound. Corresponding IC50 values were calculated.

In series [9] the target is COX-1 (Homo sapiens, UniProt P23219). Particulars: in vitro; cited from earlier work.
Chain of COX-1 (Homo sapiens, UniProt P23219) (P23219 24-599): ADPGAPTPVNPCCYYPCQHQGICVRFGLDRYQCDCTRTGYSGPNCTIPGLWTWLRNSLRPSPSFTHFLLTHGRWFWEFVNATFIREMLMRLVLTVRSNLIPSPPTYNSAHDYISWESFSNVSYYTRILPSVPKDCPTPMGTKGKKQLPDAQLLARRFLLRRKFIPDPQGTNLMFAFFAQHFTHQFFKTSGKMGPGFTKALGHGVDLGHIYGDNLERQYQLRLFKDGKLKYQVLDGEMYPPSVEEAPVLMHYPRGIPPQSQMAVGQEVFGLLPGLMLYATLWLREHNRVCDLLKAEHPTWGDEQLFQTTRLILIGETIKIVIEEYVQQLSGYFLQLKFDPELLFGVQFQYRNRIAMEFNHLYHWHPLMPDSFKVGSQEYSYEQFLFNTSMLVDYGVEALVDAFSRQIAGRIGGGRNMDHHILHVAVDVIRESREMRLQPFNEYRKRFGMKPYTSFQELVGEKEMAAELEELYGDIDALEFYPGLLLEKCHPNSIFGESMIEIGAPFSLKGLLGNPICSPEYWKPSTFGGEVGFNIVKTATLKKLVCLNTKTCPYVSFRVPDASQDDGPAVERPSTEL
Series [10] addresses T3, COX-2. The conditions noted are these: in vitro; cited from earlier work.
The subject of another series is lipoxygenase. The conditions noted are these: in vitro; cited from earlier work.

Regarding `COC(=O)[C@H](O)CC(=O)OCCc1ccc(O)c(O)c1` (stereo in doubt) [MMBHTE, methyl malate-β-hydroxytyrosol ester], the “toxicity profile (cell viability)” value in series [1], in [2], in series [3] and in [4] was “very favorable toxicity profile” in each case. Moreover, the IC50 stood at 0.0119 µM in [5], 1.72 ± 0.09 µM at COX-1 [6], 81.6 ± 7.7 µM at COX-2 [7] and 0.443 ± 0.158 µM in [8].
As to `OCCc1ccc(O)c(O)c1` [HT, hydroxytyrosol, reference compound], the IC50 is 0.0218 µM in series [5] and 39.1 ± 31.5 µM in series [8].
Consider `C/C=C(/C=O)[C@@H](CC=O)CC(=O)OCCc1ccc(O)cc1` [Oleocanthal], for which the results for the IC50 on COX-1 [6] and at COX-2 [7] were 0.43 ± 0.05 µM and 352 ± 7.7 µM, respectively. The “inhibition of COX-1” value at COX-1 [9] is “dose-dependent inhibitor”. Moreover, the “inhibition of COX-2” value on COX-2 [10] is recorded as “dose-dependent inhibitor”. For the same compound, the effect on lipoxygenase entry with lipoxygenase is given as “no effect”.
